Broadly, the Kd is the equilibrium constant for the complex coming apart.

Results on three compounds are retold here after article PMC5052559, “A fragment-based approach applied to a highly flexible target: Insights and challenges towards the inhibition of HSP70 isoforms” (Scientific Reports, 2016).

One experiment has as its target T1, HSC70-NBD S275A mutant (Homo sapiens, UniProt P11142, S275A).
T1 construct: WT HSPA8 (HSC70) residues 1 to 381; GST (N, cleaved yes); made in house; host or cells: E. coli BL21-AI (expressed as described for FL-HSP72)
The experiment is described as follows: SPR binding to S275A HSC70-NBD mutant. The settings on record: n = 3. As to the method: SPR experiments were carried out using a Biacore T200 (GE Healthcare) at 25 °C. Amine coupling chemistry was used to immobilise the HSC70 NBD domain and […], […] and […] HSC70-NBD mutant proteins on a carboxymethyl-5'-dextran (CM5) sensor chip. […] The remaining activated groups on the surface were blocked with a 7 min injection of 1 M ethanolamine at pH 8.5. For all the above procedures the flow rate was maintained at 10 μL/min and a 1x phosphate buffered saline running buffer (PBS running buffer: 10 mM NaHPO4/NaH2PO4 pH 7.4, 2.7 mM KCl, 137 mM NaCl) was used during immobilisation. Approximately ~13,000 response units (RU) of protein could be routinely captured on the CM5 chip on flow cells two to four. Flow cell one was left unmodified as the reference surface. Our in-house fragment library of 1962 fragments at a stock concentration of 100 mM in 100% (v/v) was screened. SPR screening plates were prepared by dispensing of 0.1 μL of each fragment in 384-well polypropylene V-bottomed plates (Greiner) using an ECHO 550 acoustic liquid dispenser (Labcyte) followed by addition of fresh DMSO and running buffer to give a final fragment concentration of 125 μM in 5% (v/v) DMSO in an assay volume of 80 μL. The initial fragment hits were further investigated in a three-point concentration-response experiment against freshly immobilised WT HSC70-NBD and the […] HSC70-NBD mutants using the same experimental protocol as for the primary screen. Compound dilutions of 50, 100 and 200 μM were generated using the ECHO 550. A confirmed hit was defined as a fragment giving greater than 10% response compared to adenosine and these were prioritised on the basis of their concentration response, ratio of experimental and theoretical Rmax, and shape of the sensorgrams, and expected fast on/fast off binding kinetics. […] HSC70-NBD mutant. […] Nucleotides were dissolved in double distilled water to give 10 mM stock solutions, then diluted 40X with DMSO and tested using a concentration range between 0.0625 μM and 2.5 μM.
For orientation: SPR reads the build-up and loss of mass on a sensor chip optically.

In another experiment the target is T2, S275F HSC70-NBD (Homo sapiens, UniProt P11142, S275F).
T2 construct: WT HSPA8 (HSC70) residues 1 to 381; GST (N, cleaved yes); made in house; host or cells: E. coli BL21-AI (expressed as described for FL-HSP72)
The experiment is described as follows: SPR binding to S275F HSC70-NBD mutant. As to the method: SPR experiments were carried out using a Biacore T200 (GE Healthcare) at 25 °C. Amine coupling chemistry was used to immobilise the HSC70 NBD domain and S275W, S275F and S275A HSC70-NBD mutant proteins on a carboxymethyl-5′-dextran (CM5) sensor chip. The chip’s surface was activated with a 10 min injection of a 1:1 mixture of 100 mM N-hydroxysuccinimide and 400 mM 1-ethyl-3-(3-dimethylaminopropyl)-carbodiimide. The HSC70 proteins (70 μg/mL in 10 mM sodium acetate, 750 μM ADP, pH 5.0) were immobilised on the surface over a 10 min injection period. The remaining activated groups on the surface were blocked with a 7 min injection of 1 M ethanolamine at pH 8.5. For all the above procedures the flow rate was maintained at 10 μL/min and a 1x phosphate buffered saline running buffer (PBS running buffer: 10 mM NaHPO4/NaH2PO4 pH 7.4, 2.7 mM KCl, 137 mM NaCl) was used during immobilisation. Approximately ~13,000 response units (RU) of protein could be routinely captured on the CM5 chip on flow cells two to four. Flow cell one was left unmodified as the reference surface. Our in-house fragment library of 1962 fragments at a stock concentration of 100 mM in 100% (v/v) was screened. SPR screening plates were prepared by dispensing of 0.1 μL of each fragment in 384-well polypropylene V-bottomed plates (Greiner) using an ECHO 550 acoustic liquid dispenser (Labcyte) followed by addition of fresh DMSO and running buffer to give a final fragment concentration of 125 μM in 5% (v/v) DMSO in an assay volume of 80 μL.
The full fragment screen was carried out against freshly immobilised WT-HSC70 NBD and the S275W and S275F HSC70-NBD mutants, using the same experimental setting as for the clean screen and a final fragment concentration of 125 μM. Injections of running buffer and of 125 μM adenosine, which was used as a positive control to monitor the health of the protein, were carried out at intervals of 35 cycles throughout the screen. In addition, a DMSO correction curve, prepared as described in the GE manual, was used to correct the effects of the solvent on signal intensity. Raw SPR data from the single point screen was processed and analysed using Pipeline Pilot version 8.0.1.500[37]. Firstly, the reported binding level for each fragment was corrected by subtraction of the buffer blank. Secondly, the values were corrected for the molecular weight of each fragment and the binding was normalised to the binding level observed for the closest adenosine control. […] However, fragments with a binding level exceeding two times the theoretical Rmax were excluded, as we considered this an indication of superstoichiometric binding. Finally, fragments showing preferred binding to wild-type HSC70-NBD versus the HSC70-NBD mutants with a blocked adenine sub pocket were identified by plotting the binding levels of the fragments to wild-type HSC70-NBD against the binding levels of the respective mutant HSC70-NBD variants and added to the primary hit list. In total this procedure yielded 54 initial fragment hits.

Another experiment addresses T3, WT HSC70-NBD (Homo sapiens, UniProt P11142).
T3 construct: WT HSPA8 (HSC70) residues 1 to 381; GST (N, cleaved yes); made in house; host or cells: E. coli BL21-AI (expressed as described for FL-HSP72)
The experiment is described as follows: SPR binding to wild-type HSC70-NBD. The settings on record: for Kd: SPR, 25 °C; for LE (ligand efficiency): calculated using the SPR Kd on WT HSC70-NBD. How it is done: (§1) SPR experiments were carried out using a Biacore T200 (GE Healthcare) at 25 °C. Amine coupling chemistry was used to immobilise the HSC70 NBD domain and S275W, S275F and S275A HSC70-NBD mutant proteins on a carboxymethyl-5′-dextran (CM5) sensor chip. The chip’s surface was activated with a 10 min injection of a 1:1 mixture of 100 mM N-hydroxysuccinimide and 400 mM 1-ethyl-3-(3-dimethylaminopropyl)-carbodiimide. […] The remaining activated groups on the surface were blocked with a 7 min injection of 1 M ethanolamine at pH 8.5. […] Flow cell one was left unmodified as the reference surface.
(§2) In addition, a DMSO correction curve, prepared as described in the GE manual, was used to correct the effects of the solvent on signal intensity. Raw SPR data from the single point screen was processed and analysed using Pipeline Pilot version 8.0.1.500[37]. Firstly, the reported binding level for each fragment was corrected by subtraction of the buffer blank.
(§3) The initial fragment hits were further investigated in a three-point concentration-response experiment against freshly immobilised WT HSC70-NBD and the S275W HSC70-NBD mutants using the same experimental protocol as for the primary screen. Compound dilutions of 50, 100 and 200 μM were generated using the ECHO 550.

The target of the next experiment is T4, S275W HSC70-NBD (Homo sapiens, UniProt P11142, S275W).
T4 construct: WT HSPA8 (HSC70) residues 1 to 381; GST (N, cleaved yes); made in house; host or cells: E. coli BL21-AI (expressed as described for FL-HSP72)
The experiment can be described thus: SPR binding to S275W HSC70-NBD mutant. How it is done: as §1, §2, §3

Another experiment addresses HSP70. Set-up: method as in PMID 19256508. The conditions noted are these: read-out: SPR Kd; cited from earlier work.
In the next experiment the target is T5, HSP72 (Homo sapiens, UniProt P0DMV8).
T5 construct: 6xHis followed by HRV 3C protease site (N); made in house; host or cells: E. coli BL21-AI
The experiment can be described thus: Ligand observed NMR (CPMG) binding to HSP72 with ATP competition. The conditions noted are these: 0.5 mM compound, 20 µM HSP72, ± 100 µM ATP; 1D CPMG. How it is done: Ligand observed NMR experiments
NMR experiments were conducted at a 1H frequency of 500 MHz using a Bruker Avance 500 spectrometer (Bruker, […]) equipped with a 1.7 mm TXI probe. All data were acquired and processed using Bruker Topspin 3.2. The Relaxation edited 1H-NMR spectrum was acquired at 295K using the CPMG sequence with a spin-lock time of 600 ms. The water signal was suppressed using presaturation during relaxation delay (2 s) and by using the Watergate sequence subsequent to the CPMG sequence. For each spectrum 64 transients were acquired. The three samples for which spectra were collected consisted of 50 mM phosphate buffer at pH 7.5, 10% (v/v) D2O and 0.5 mM compound 30, 0.5 mM compound 30 in the presence of 20 µM HSP72, and 0.5 mM compound 30 in the presence of 20 µM HSP72 and 100 µM ATP respectively (see Figure S 8).

T3 sequence (P11142 1-381): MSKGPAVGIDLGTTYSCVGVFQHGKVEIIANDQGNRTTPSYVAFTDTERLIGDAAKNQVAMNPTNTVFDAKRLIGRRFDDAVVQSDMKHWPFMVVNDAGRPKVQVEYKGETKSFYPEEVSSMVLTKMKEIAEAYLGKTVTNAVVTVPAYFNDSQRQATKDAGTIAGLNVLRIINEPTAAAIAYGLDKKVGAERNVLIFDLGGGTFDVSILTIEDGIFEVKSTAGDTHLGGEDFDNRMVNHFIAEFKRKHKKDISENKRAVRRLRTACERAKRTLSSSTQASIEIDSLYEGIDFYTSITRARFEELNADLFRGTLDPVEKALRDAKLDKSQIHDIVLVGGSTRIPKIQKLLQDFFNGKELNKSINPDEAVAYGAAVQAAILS
T4 sequence (P11142 1-381 S275W): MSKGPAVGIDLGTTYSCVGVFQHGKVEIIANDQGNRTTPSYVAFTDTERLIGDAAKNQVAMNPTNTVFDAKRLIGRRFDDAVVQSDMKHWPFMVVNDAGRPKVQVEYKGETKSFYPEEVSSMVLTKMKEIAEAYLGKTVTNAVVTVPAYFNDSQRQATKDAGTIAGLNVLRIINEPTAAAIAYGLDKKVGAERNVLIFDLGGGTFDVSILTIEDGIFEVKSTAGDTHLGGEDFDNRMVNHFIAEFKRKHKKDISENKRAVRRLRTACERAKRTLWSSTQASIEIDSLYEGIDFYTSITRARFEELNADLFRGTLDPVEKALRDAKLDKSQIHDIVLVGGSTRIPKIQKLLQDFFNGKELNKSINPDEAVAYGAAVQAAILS
T2 sequence (P11142 1-381 S275F): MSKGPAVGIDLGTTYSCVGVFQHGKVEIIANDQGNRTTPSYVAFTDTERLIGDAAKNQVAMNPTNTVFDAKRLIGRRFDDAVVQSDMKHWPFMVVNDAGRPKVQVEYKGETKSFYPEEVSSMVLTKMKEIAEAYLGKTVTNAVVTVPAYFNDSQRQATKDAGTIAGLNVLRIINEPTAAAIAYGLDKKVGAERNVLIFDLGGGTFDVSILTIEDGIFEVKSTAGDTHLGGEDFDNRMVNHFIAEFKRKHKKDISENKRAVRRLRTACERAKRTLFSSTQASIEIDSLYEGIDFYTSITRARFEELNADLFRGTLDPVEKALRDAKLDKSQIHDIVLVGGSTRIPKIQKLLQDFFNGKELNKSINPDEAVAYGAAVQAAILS
T5 sequence (P0DMV8 whole entry): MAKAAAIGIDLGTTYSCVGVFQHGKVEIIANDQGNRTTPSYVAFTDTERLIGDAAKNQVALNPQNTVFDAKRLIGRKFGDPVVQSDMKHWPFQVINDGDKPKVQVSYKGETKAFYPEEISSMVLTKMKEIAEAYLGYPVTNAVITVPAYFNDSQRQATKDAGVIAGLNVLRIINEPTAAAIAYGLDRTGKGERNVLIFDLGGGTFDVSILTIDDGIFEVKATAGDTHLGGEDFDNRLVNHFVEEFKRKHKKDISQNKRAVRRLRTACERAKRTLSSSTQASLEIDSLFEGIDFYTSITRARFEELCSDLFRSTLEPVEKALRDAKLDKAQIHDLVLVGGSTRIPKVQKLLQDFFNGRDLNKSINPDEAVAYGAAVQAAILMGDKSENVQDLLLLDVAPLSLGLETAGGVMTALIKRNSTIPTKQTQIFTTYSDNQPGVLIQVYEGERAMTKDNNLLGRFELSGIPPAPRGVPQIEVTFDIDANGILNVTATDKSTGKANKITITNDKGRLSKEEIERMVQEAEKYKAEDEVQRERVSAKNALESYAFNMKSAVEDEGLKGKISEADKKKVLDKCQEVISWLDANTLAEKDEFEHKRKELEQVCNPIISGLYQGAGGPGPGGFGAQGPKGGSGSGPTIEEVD
T1 sequence (P11142 1-381 S275A): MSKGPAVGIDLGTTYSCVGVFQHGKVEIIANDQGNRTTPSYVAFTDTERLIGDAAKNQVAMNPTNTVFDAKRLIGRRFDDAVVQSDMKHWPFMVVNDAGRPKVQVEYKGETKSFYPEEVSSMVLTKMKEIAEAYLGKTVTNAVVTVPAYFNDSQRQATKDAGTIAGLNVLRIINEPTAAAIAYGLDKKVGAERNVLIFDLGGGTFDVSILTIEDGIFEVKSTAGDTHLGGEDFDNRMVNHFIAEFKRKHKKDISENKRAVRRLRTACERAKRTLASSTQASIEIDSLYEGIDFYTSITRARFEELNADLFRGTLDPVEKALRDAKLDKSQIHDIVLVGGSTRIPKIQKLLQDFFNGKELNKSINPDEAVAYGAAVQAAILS

With `Nc1ncnc2c1ncn2[C@@H]1O[C@H](CO)[C@@H](O)[C@H]1O` [Adenosine, adenosine, reference compound], the Kd on HSC70-NBD S275A mutant worked out at 1800 ± 520 µM; on WT HSC70-NBD (mean ± SD, No binding = binding level ≤10RU at 1mM) it was 165 µM. For the same compound, the “binding to S275F HSC70-NBD mutant (in words)” value on S275F HSC70-NBD is on record as “abolished binding”. Also, on WT HSC70-NBD, the “LE (ligand efficiency)” value is 0.28. In addition, the “binding to S275W HSC70-NBD mutant (in words)” value at S275W HSC70-NBD is recorded as “abolished binding”.

Take `N#Cc1ccc(COC[C@H]2O[C@@H](n3c(NCc4ccc(Cl)c(Cl)c4)nc4c(N)ncnc43)[C@H](O)[C@@H]2O)cc1` [Compound 1, VER-155008]: the “binding to S275F HSC70-NBD mutant (in words)” value on S275F HSC70-NBD is recorded as “abolished binding”. Further, the Kd on HSP70 was 0.3 µM. In addition, the “binding to S275W HSC70-NBD mutant (in words)” value on S275W HSC70-NBD is “abolished binding”.

For `OC[C@H]1C[C@@H](Nc2ncnc3cccc(OCc4ccccn4)c23)[C@H](O)[C@@H]1O` [Compound 30], binding at WT HSC70-NBD (mean ± standard deviation or standard error, triplicate unless marked duplicate/single) was characterised by a dissociation constant (Kd) of 75 µM. In addition, on WT HSC70-NBD, the “LE (ligand efficiency)” value is reported as 0.20. In addition, at S275W HSC70-NBD (single measurement), the “Kd S275W HSC70-NBD” value is “No binding”. For the same compound, the “binding to HSP72 by ligand observed NMR” value on HSP72 is “bind in the ATP-binding site”.
